Laboratory results from patent publication US10758517B2, “mPGES-1 inhibitor for the treatment of osteoarthritis pain” (Glenmark Pharmaceuticals S.A., priority 2017, dated 2020).

How the values were obtained:
[1] = Safety and tolerability of single oral doses (Example 1); type: in vivo, human; details: single doses up to 1000 mg
Procedure: (§1) In Part 1a, single doses of Compound I of 10 mg (Group A), 30 mg (Group B), 100 mg (Group C), 250 mg (Group D), 500 mg (Group E) and 1000 mg (Group F) were administered after fasting. In each dose group, 6 subjects received Compound I and 2 subjects received placebo.
Adverse events (AEs), vital signs, 12-lead electrocardiogram (ECG), clinical laboratory evaluations and physical examination.
(§2) Summary statistics were presented for the PK, pharmacodynamic (PD) and safety data, as appropriate. PK parameters following single oral doses of Compound I were determined from the plasma concentrations of Compound I using non-compartmental procedures in WinNonlin Dose proportionality was assessed using a power model, with tmax analyzed using the Kruskal-Wallis test. The effect of food on PK was assessed at the 100 and 250 mg doses using a mixed effects model. The effect of age on PK was assessed for elderly (>65 years) versus non-elderly (<65 years) at the 250 mg dose level in Parts 1a and 2, using an analysis of variance (ANOVA) with age as a fixed effect. For PD analyses, percent decrease of ex vivo LPS-induced PGE2 release was calculated. For Part 3, urinary excretion of prostanoid metabolites was also evaluated. The data are presented as absolute, as well as creatinine normalized urinary biomarker amounts, along percent change from baseline over a definite time interval. The percent change from baseline in urinary biomarkers was assessed using an analysis of covariance (ANCOVA) model

LPS-induced PGE2 release [2] = test: Ex vivo LPS-induced PGE2 release in whole blood, single ascending oral doses (Example 1, Part 1a); set-up: species or system human; details: for EAUC0-24 h, Difference in LS mean versus placebo / EAUC0-24 h, LS mean / EAUC0-336 h, Difference in LS mean versus placebo / EAUC0-336 h, LS mean / ETmax (time to reach maximum effect), Median / ETmax, Median difference versus placebo / Epeak (maximum % inhibition), LS mean / Epeak, Difference in LS mean versus placebo: fasted healthy subjects
Procedure: as §1
(§3) In Parts 1a and 3, whole blood samples were incubated and analyzed for lipopolysaccharide (LPS)-induced prostaglandin PGE2 release. In Part 3, urine samples were collected for analysis of prostanoid metabolites.
as §2
(§4) Percent change in ex vivo LPS-induced PGE2 release in whole blood is the pharmacodynamic (PD) biomarker. The PGE2 levels in whole blood were estimated using the homogeneous time-resolved fluorescence method.
(§5) Concentrations below the limit of quantification were treated as ½ the lower limit of quantification for calculation.
Time points where unstimulated PGE2 concentration was more than 3 times greater than the mean unstimulated PGE2 and equal to or greater than ½ baseline value for an individual subject were not included in the calculation of percent inhibition. If pre-dose LPS-induced PGE2 was less than unstimulated PGE2, the value was not used for calculation of percent inhibition.

[3] = Plasma pharmacokinetics after single oral doses (Example 1); type: in vivo, human; details: for dose proportionality of exposure: single oral doses
Procedure: as §1
In Part 2, a dose of 250 mg was administered after fasting. 6 subjects received Compound I and 2 subjects received placebo.
Blood and urine samples for the analysis of plasma and urinary concentrations of Compound I.
as §2

LPS-induced PGE2 release [4] = test: Ex vivo LPS-induced PGE2 release in whole blood, single dose crossover versus celecoxib (Example 1, Part 3); set-up: species or system human
Procedure: Part 2 was a single-dose, double-blind study in a single cohort of elderly subjects. Part 3 was an open-label, randomized, 2-period, single-dose, crossover study to compare effects of the highest tolerated Compound I dose and celecoxib on prostanoid metabolism in healthy adult subjects.
In Part 3, Compound I was administered at a dose of 1000 mg after fasting. All subjects received Compound I and all subjects received 400 mg celecoxib in a cross-over study design.
as §3, §2, §4, §5
Time points where unstimulated prostaglandin E2 (PGE2) concentration was more than 3 times greater than the mean unstimulated PGE2 and equal to or greater than ½ baseline value for an individual subject were not included in the calculation of % inhibition.

[5] = Compound I 1000 mg versus celecoxib 400 mg, single oral doses, fasted
[6] = single oral dose 1000 mg, fasted healthy subjects

CC(C)(C)C(=O)NCc1ccc(Cl)c(-c2nn(-c3ccc(C(F)(F)F)cc3)c(=O)[nH]2)c1 [Compound I, N-(4-chloro-3-(5-oxo-1-(4-(trifluoromethyl)phenyl)-4,5-dihydro-1H-1,2,4-triazol-3-yl)benzyl)pivalamide]
dose effect on incidence or severity of treatment-emergent AEs [1]: no evidence of a dose effect | lab abnormalities or ECG findings [1]: No clinically significant lab abnormalities or ECG findings | tolerability ([1]; healthy adult subjects): well tolerated | persistence of inhibition (LPS-induced PGE2 release [2]; 1000 mg single dose): still apparent at 336 hours | time for which near maximal inhibition was retained (LPS-induced PGE2 release [2]; 250 and 500 mg single doses): at least 168 hours | time for which reduction in PGE2 release was apparent (LPS-induced PGE2 release [2]; lower doses, post-dose): approximately 24 hours | EAUC0-24 h, Difference in LS mean versus placebo (LPS-induced PGE2 release [2]; single oral dose 10 mg): 956 % · h | EAUC0-24 h, LS mean (LPS-induced PGE2 release [2]; single oral dose 10 mg): 898 % · h | EAUC0-336 h, Difference in LS mean versus placebo (LPS-induced PGE2 release [2]; single oral dose 10 mg): −5321 % · h | EAUC0-336 h, LS mean (LPS-induced PGE2 release [2]; single oral dose 10 mg): −3824 % · h | ETmax (time to reach maximum effect), Median (LPS-induced PGE2 release [2]; single oral dose 10 mg): 4.00 h | ETmax, Median difference versus placebo (LPS-induced PGE2 release [2]; single oral dose 10 mg): -8.02 h | Epeak (maximum % inhibition), LS mean (LPS-induced PGE2 release [2]; single oral dose 10 mg): 77.7% | Epeak, Difference in LS mean versus placebo (LPS-induced PGE2 release [2]; single oral dose 10 mg): 9.90% | EAUC0-24 h, Difference in LS mean versus placebo (LPS-induced PGE2 release [2]; single oral dose 30 mg): 1028 % · h | EAUC0-24 h, LS mean (LPS-induced PGE2 release [2]; single oral dose 30 mg): 970 % · h | EAUC0-336 h, Difference in LS mean versus placebo (LPS-induced PGE2 release [2]; single oral dose 30 mg): 7240 % · h | EAUC0-336 h, LS mean (LPS-induced PGE2 release [2]; single oral dose 30 mg): 8736 % · h | ETmax (time to reach maximum effect), Median (LPS-induced PGE2 release [2]; single oral dose 30 mg): 3.04 h | ETmax, Median difference versus placebo (LPS-induced PGE2 release [2]; single oral dose 30 mg): -8.98 h | Epeak (maximum % inhibition), LS mean (LPS-induced PGE2 release [2]; single oral dose 30 mg): 72.8% | Epeak, Difference in LS mean versus placebo (LPS-induced PGE2 release [2]; single oral dose 30 mg): 4.94% | EAUC0-24 h, Difference in LS mean versus placebo (LPS-induced PGE2 release [2]; single oral dose 100 mg): 1709 % · h | EAUC0-24 h, LS mean (LPS-induced PGE2 release [2]; single oral dose 100 mg): 1650 % · h | EAUC0-336 h, Difference in LS mean versus placebo (LPS-induced PGE2 release [2]; single oral dose 100 mg): 10115 % · h | EAUC0-336 h, LS mean (LPS-induced PGE2 release [2]; single oral dose 100 mg): 11612 % · h | ETmax (time to reach maximum effect), Median (LPS-induced PGE2 release [2]; single oral dose 100 mg): 7.02 h | ETmax, Median difference versus placebo (LPS-induced PGE2 release [2]; single oral dose 100 mg): -7.50 h | Epeak (maximum % inhibition), LS mean (LPS-induced PGE2 release [2]; single oral dose 100 mg): 91.6% | Epeak, Difference in LS mean versus placebo (LPS-induced PGE2 release [2]; single oral dose 100 mg): 23.8% | EAUC0-24 h, Difference in LS mean versus placebo (LPS-induced PGE2 release [2]; single oral dose 250 mg): 1608 % · h | EAUC0-24 h, LS mean (LPS-induced PGE2 release [2]; single oral dose 250 mg): 1550 % · h | EAUC0-336 h, Difference in LS mean versus placebo (LPS-induced PGE2 release [2]; single oral dose 250 mg): 12965 % · h | EAUC0-336 h, LS mean (LPS-induced PGE2 release [2]; single oral dose 250 mg): 14461 % · h | ETmax (time to reach maximum effect), Median (LPS-induced PGE2 release [2]; single oral dose 250 mg): 2.03 h | ETmax, Median difference versus placebo (LPS-induced PGE2 release [2]; single oral dose 250 mg): -9.94 h | Epeak (maximum % inhibition), LS mean (LPS-induced PGE2 release [2]; single oral dose 250 mg): 92.8% | Epeak, Difference in LS mean versus placebo (LPS-induced PGE2 release [2]; single oral dose 250 mg): 24.9% | EAUC0-24 h, Difference in LS mean versus placebo (LPS-induced PGE2 release [2]; single oral dose 500 mg): 1766 % · h | EAUC0-24 h, LS mean (LPS-induced PGE2 release [2]; single oral dose 500 mg): 1707 % · h | EAUC0-336 h, Difference in LS mean versus placebo (LPS-induced PGE2 release [2]; single oral dose 500 mg): 16417 % · h | EAUC0-336 h, LS mean (LPS-induced PGE2 release [2]; single oral dose 500 mg): 17914 % · h | ETmax (time to reach maximum effect), Median (LPS-induced PGE2 release [2]; single oral dose 500 mg): 12.0 h | ETmax, Median difference versus placebo (LPS-induced PGE2 release [2]; single oral dose 500 mg): -0.0333 h | Epeak (maximum % inhibition), LS mean (LPS-induced PGE2 release [2]; single oral dose 500 mg): 87.7% | Epeak, Difference in LS mean versus placebo (LPS-induced PGE2 release [2]; single oral dose 500 mg): 19.9% | EAUC0-24 h, Difference in LS mean versus placebo (LPS-induced PGE2 release [2]; single oral dose 1000 mg): 1086 % · h | EAUC0-24 h, LS mean (LPS-induced PGE2 release [2]; single oral dose 1000 mg): 1028 % · h | EAUC0-336 h, Difference in LS mean versus placebo (LPS-induced PGE2 release [2]; single oral dose 1000 mg): 17780 % · h | EAUC0-336 h, LS mean (LPS-induced PGE2 release [2]; single oral dose 1000 mg): 19277 % · h | ETmax (time to reach maximum effect), Median (LPS-induced PGE2 release [2]; single oral dose 1000 mg): 144 h | ETmax, Median difference versus placebo (LPS-induced PGE2 release [2]; single oral dose 1000 mg): 112 h | Epeak (maximum % inhibition), LS mean (LPS-induced PGE2 release [2]; single oral dose 1000 mg): 81.8% | Epeak, Difference in LS mean versus placebo (LPS-induced PGE2 release [2]; single oral dose 1000 mg): 14.0% | inhibition of ex vivo LPS-induced PGE2 release (in words) (LPS-induced PGE2 release [2]; single oral doses from 10 mg to 1000 mg): marked dose-dependent inhibition | dose proportionality of exposure ([3]; 10 to 250 mg dose range): Near proportional increases | pharmacokinetic differences in elderly subjects ([3]; elderly subjects, single dose 250 mg): No notable pharmacokinetic differences | dose proportionality of exposure ([3]; higher doses (250 to 1000 mg)): sub-proportional increases | half-life ([3]; human, plasma, single oral doses 10 to 1000 mg, independent of dose, read-out: mean T1/2): 41.7 to 54.5 h | Tmax ([3]; human, plasma, single oral doses of 10 and 30 mg, read-out: median Tmax): 2 h | EAUC0-24 h, Difference in LS mean versus celecoxib (LPS-induced PGE2 release [4]; [5]): 7.89 % · h | EAUC0-336 h, Difference in LS mean versus celecoxib (LPS-induced PGE2 release [4]; [5]): 19024 % · h | ETmax, Median difference versus celecoxib (LPS-induced PGE2 release [4]; [5]): 6.00 h | Epeak, Difference in LS mean versus celecoxib (LPS-induced PGE2 release [4]; [5]): −1.87% | EAUC0-24 h, LS mean (LPS-induced PGE2 release [4]; [6]): 1428 % · h | EAUC0-336 h, LS mean (LPS-induced PGE2 release [4]; [6]): 8866 % · h | ETmax (time to reach maximum effect), Median (LPS-induced PGE2 release [4]; [6]): 12.0 h | Epeak (maximum % inhibition), LS mean (LPS-induced PGE2 release [4]; [6]): 87.2% | inhibition of LPS-induced PGE2 concentration (LPS-induced PGE2 release [4]; single oral dose 1000 mg, maintained for at least 168 hours post-dose): approximately 50%
